Experimental data published in ChEMBL document CHEMBL3414432, “Discovery of N-benzoxazol-5-yl-pyrazole-4-carboxamides as nanomolar SQR inhibitors” (Eur J Med Chem, 2015).

Columns and labels:
[1] = Inhibition of porcine heart SQR in SCR complex assessed as reduction in ubiquinol-cytochrome c reductase (complex 3) activity by measuring cytochrome c level using succinate and DCIP substrate by spectrophotometry; design: species or system Sus scrofa
[2] = Inhibition of porcine heart SCR using succinate and cytochrome c substrate at 23 degC by spectrophotometry; design: species or system Sus scrofa
[3] = target: T1, Succinate-ubiquinone oxidoreductase (Sus scrofa, UniProt A5GZW8+D0VWV4); experiment: Non-competitive inhibition of porcine heart SQR in SCR complex with respect to DCIP substrate at 23 degC by double-reciprocal plot; format: protein-complex assay
T1 sequence (A5GZW8 whole entry): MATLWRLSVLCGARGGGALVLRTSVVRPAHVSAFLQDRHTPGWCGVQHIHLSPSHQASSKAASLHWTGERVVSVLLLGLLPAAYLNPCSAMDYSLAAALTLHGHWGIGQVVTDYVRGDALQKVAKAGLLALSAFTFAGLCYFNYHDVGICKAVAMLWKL
T1 sequence (D0VWV4 whole entry): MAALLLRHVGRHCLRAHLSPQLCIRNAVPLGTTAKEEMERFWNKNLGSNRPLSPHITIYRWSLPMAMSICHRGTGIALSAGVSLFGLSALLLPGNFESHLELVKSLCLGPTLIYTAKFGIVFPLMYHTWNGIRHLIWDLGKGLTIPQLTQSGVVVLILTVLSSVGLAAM

[4] = Non-competitive inhibition of porcine heart SCR with respect to cytochrome c substrate at 23 degC by double-reciprocal plot; design: species or system Sus scrofa
Sus scrofa [5] = species: Sus scrofa; experiment: Potency index, ratio of Ki for penthiopyrad to Ki for compound against porcine heart SCR
[6] = target: T1, Succinate-ubiquinone oxidoreductase; experiment: Inhibition of porcine heart SQR in SCR complex assessed as reduction in ubiquinol-cytochrome c reductase (complex 3) activity by measuring cytochrome c level using succinate and DCIP substrate at 23 degC by spectrophotometry; format: protein-complex assay
Sus scrofa [7] = species: Sus scrofa; experiment: Inhibition of porcine heart electron transport protein complex 3 in SCR complex at 10 uM using DBH2 and cytochrome c substrate by spectrophotometry
[8] = target: Succinate-ubiquinone oxidoreductase (Sus scrofa) (UniProt A5GZW8+D0VWV4); experiment: Potency index, ratio of Ki for penthiopyrad to Ki for compound against porcine heart SQR in SCR complex; format: protein-complex assay
[9] = Inhibition of bovine heart SQR; design: species or system Bos taurus
[10] = Inhibition of rat liver SQR

COc1ccc(CSc2nc3cc(NC(=O)c4cn(C)nc4C(F)F)ccc3o2)cc1 gave an IC50 [1] of 208 nM.
With Cn1cc(C(=O)Nc2ccc3oc(SCc4cccc(Cl)c4)nc3c2)c(C(F)F)n1 the IC50 [1] was 82 nM.
Cn1cc(C(=O)Nc2ccc3oc(SCc4cccc(F)c4)nc3c2)c(C(F)F)n1 showed an IC50 [1] of 244 nM.
For COc1ccc(CSc2nc3cc(NC(=O)c4cn(C)nc4C(F)(F)F)ccc3o2)cc1, the IC50 [1] was 284 nM.
Cn1cc(C(=O)Nc2ccc3oc(SCc4cccc(Br)c4)nc3c2)c(C(F)(F)F)n1 gave an IC50 [1] of 119 nM.
With Cn1cc(C(=O)Nc2ccc3oc(SCc4ccc(Cl)cc4)nc3c2)c(C(F)(F)F)n1 the IC50 [1] was 111 nM.
Work on Cn1cc(C(=O)Nc2ccc3oc(SCc4cccc(Br)c4)nc3c2)c(C(F)F)n1 yielded an IC50 [1] of 62 nM.
Work on Cn1cc(C(=O)Nc2ccc3oc(SCc4ccc(OC(F)(F)F)cc4)nc3c2)c(C(F)F)n1 yielded an IC50 [2] of 38 nM, a Ki [3] of 11 nM and a Ki [4] of 43 nM. For the same compound, the Ratio Ki (Sus scrofa [5]) was 30, the IC50 [6] was 11 nM and the inhibition (Sus scrofa [7]) was 13%. For the same compound, the IC50 [1] was 38 nM and the Ratio Ki [8] was 30.
For CC(C)CC(C)c1sccc1NC(=O)c1cn(C)nc1C(F)(F)F (configuration not stated) [PENTHIOPYRAD], the IC50 [2] was 1320 nM, the Ki [3] was 327 nM and the Ki [4] was 1390 nM. The IC50 [6] was 527 nM, the inhibition (Sus scrofa [7]) was under 10% and the IC50 [1] was 1320 nM.
For Cn1cc(C(=O)Nc2ccc3oc(SCc4ccc(C(F)(F)F)cc4)nc3c2)c(C(F)(F)F)n1, the IC50 [1] was 83 nM.
Cn1cc(C(=O)Nc2ccc3oc(SCc4cccc(Cl)c4)nc3c2)c(C(F)(F)F)n1 gave an IC50 [1] of 149 nM.
Compound COc1[nH]c(=O)c(C(=O)[C@@H](C)C[C@H](C)[C@@H](Cl)CCl)c(O)c1OC [ATPENIN A5] has an IC50 [9] of 3.6 nM and an IC50 [10] of 3.7 nM.
Compound Cn1cc(C(=O)Nc2ccc3oc(SCc4ccc(C#N)cc4)nc3c2)c(C(F)F)n1 has an IC50 [1] of 397 nM.
In the case of Cn1cc(C(=O)Nc2ccc3oc(SCc4ccc(OC(F)(F)F)cc4)nc3c2)c(C(F)(F)F)n1, the IC50 [1] is reported as 88 nM.
With Cn1cc(C(=O)Nc2ccc3oc(SCc4ccc(F)c(F)c4)nc3c2)c(C(F)(F)F)n1 the IC50 [1] was 130 nM.
With Cn1cc(C(=O)Nc2ccc3oc(SCc4ccc(F)cc4)nc3c2)c(C(F)F)n1 the IC50 [1] was 101 nM.
With Cc1ccc(CSc2nc3cc(NC(=O)c4cn(C)nc4C(F)F)ccc3o2)cc1 the IC50 [1] was 216 nM.
Cn1cc(C(=O)Nc2ccc3oc(SCc4cccc(F)c4)nc3c2)c(C(F)(F)F)n1 showed an IC50 [1] of 418 nM.
Compound Cn1cc(C(=O)Nc2ccc3oc(SCc4ccc(C(F)(F)F)cc4)nc3c2)c(C(F)F)n1 has an IC50 [1] of 39 nM.
For Cn1cc(C(=O)Nc2ccc3oc(SCc4ccc(Cl)cc4)nc3c2)c(C(F)F)n1, the IC50 [1] was 57 nM.
In the case of Cn1cc(C(=O)Nc2ccc3oc(SCc4ccc(F)c(F)c4)nc3c2)c(C(F)F)n1, the IC50 [1] is reported as 100 nM.
Work on Cn1cc(C(=O)Nc2ccc3oc(SCc4ccc(C#N)cc4)nc3c2)c(C(F)(F)F)n1 yielded an IC50 [1] of 562 nM.
Compound Cc1ccc(CSc2nc3cc(NC(=O)c4cn(C)nc4C(F)(F)F)ccc3o2)cc1 has an IC50 [1] of 269 nM.
For Cn1cc(C(=O)Nc2ccc3oc(SCc4ccc(F)cc4)nc3c2)c(C(F)(F)F)n1, the IC50 [1] was 210 nM.
